Counter-ions that a name gives are not always drawn. Like-named read-outs stand apart in the source and are kept apart here.
Tests used:
[1] = molecular target: T1, KRAS^G12D (Homo sapiens (Human), UniProt P01116, G12D); experiment: SOS1-mediated binding of KRAS^G12D to effector protein c-Raf (TR-FRET); assay type: biochemical; details: KRAS G12D/c-Raf/SOS1/GTP, read-out: IC50 Values of Compounds for KRAS^G12D Activity
Experimental: Assay example 1: Assay of SOS1-mediated binding ability of KRAS^G12D to effector protein c-Raf
2. Assay steps 2.1 Preparation of 1×enzymatic reaction buffer:
2.2 Preparation of KRAS G12D enzyme (2×):
2.3 Preparation of substrate and antibody mixture (2×):
1) The compounds were serially diluted 5-fold with DMSO in a dilution plate to a final starting concentration of 10 μM.
2) The compounds were transferred with Echo to a 384 reaction plate with […] per well.
3) 5 μL of KRAS G12D enzyme was added to each well of the reaction plate.
4) The plates were sealed with a sealing film and centrifuged at 1000 g for 30 seconds, and then incubated at room temperature for 15 minutes.
5) 2× cRaf/SOS1/GTP/MAb Anti 6HIS-d2/MAb Anti GST-Eu mixture was prepared with 1× enzyme reaction buffer, and 5 μL of the mixture was added to the reaction plate.
6) The mixture was centrifuged at 1000g for 30 seconds and reacted at room temperature for 2 hours.
7) The fluorescence signals at 615 nm (Cryptate) and 665 nm (XL665) were read with a BMG microplate reader.
8) Data analysis was performed using Graphpad 7.0 software to give IC50.

[2] = test system: KRAS^G12D mutated AsPC-1 cells; experiment: Anti-cell proliferation in tumor cell line AsPC-1 (CellTiter-Glo 3D); assay type: cell-based; details: Homo sapiens, ASPC1; AsPC-1, 120 hours, 3D culture; read-out: Anti-proliferation Activity against KRAS^G12D Mutated AsPC-1 Cells IC50
Excerpt: Assay example 2. Anti-cell proliferation effects of compounds in tumor cell line AsPC-1 1. Research purpose
In this assay, the inhibitory effects of compounds on cell proliferation were studied by detecting the effects of compounds on the in vitro cell activity in the tumor cell line AsPC-1.
Ultra Low Cluster-96 well plate (Corning-7007)
Greiner CELLSTAR 96-well plate (#655090)
Promega CellTiter-Glo 3D Luminescence Cell Viability Detection Kit (Promega-G9683)
2104-10 En Vision Plate Reader, PerkinElmer
RPMI 1640, DMEM, PBS (phosphate buffered solution), FBS (fetal bovine serum), Antibiotic-antimycotic, L-glutamine, DMSO (dimethyl sulfoxide)
3. Assay methods and steps Cell culture
The tumor cell line was cultured in a 37° C., 5% CO2 incubator according to the culture conditions indicated in the culture method. […]
Cells were stained with trypan blue and viable cells were counted. […]
CellTiter-Glo luminescence assay for cell viability detection (day 5)
The following steps were performed according to the instructions of the Promega CellTiter-Glo 3D Luminescence Cell Viability Dectection Kit (Promega #G9683). […]
The solution in the ULA culture plate was then transferred to a black bottom culture plate (#655090) and left at room temperature for 25 minutes to stabilize the luminescence signal.
Luminescence signals were detected with a 2104 EnVision plate reader. […]

[3] = test system: phospho-ERK in GP2D cells; experiment: Inhibition of phospho-ERK in GP2D cells (Odyssey in-cell imaging); assay type: cell-based; details: Homo sapiens, 1 hour compound, EGF stimulation, read-out: Inhibitory effects on intracellular phospho-ERK IC50
Experimental: Assay example 3. Inhibitory effect of compounds on phospho-ERK in GP2D cells
In this assay, the inhibitory effect of the assayed compounds on the phosphorylation of ERK protein downstream of the KRAS […] signaling pathway in human colon cancer GP2D cells was analyzed.
2. Reagents, consumables and instruments
3.Assay process 1. Cell culture
1) GP2D cells were cultured in a cell culture 75 flask at 37° C., 5% CO2, and the medium was DMEM medium (added with 10% FBS and 1% P/S).
2) After cultivation for 2 days, the medium was removed and the sterile PBS buffer was used to wash once.
3) 3 mL of trypsin was added and the cells were digested in a 37° C. incubator for 2 to 3 minutes until cells fell off.
4) 9 mL of fresh culture medium was added to neutralize the digestion; the cells were aspirated into a centrifuge tube and centrifuged at 1000 rpm at room temperature for 5 minutes.
5) The supernatant was removed, and 3 mL of fresh culture medium was added to resuspend the cells; the cells were counted by a cell counter.
1) 7000 cells per well were plated in a 384-cell culture plate with 40 μL of culture medium, and cultured overnight in a 37° C. and 5% CO2 incubator.
2) The Echo655 instrument was used to add 40 nL of serially diluted compounds (the initial concentration of the compound was 1000 nM, and the compound was serially diluted 3-fold. […]

[4] = Pharmacokinetic study in vivo in mice; details: mouse, plasma, male C57BL/6J mice; for AUC(0-t): read-out: area under plasma concentration-time curve AUC0-last
Experimental: Male C57BL/6J mice aged 7 to 10 weeks were selected, and administered candidate compound solutions intravenously or orally. Whole blood was collected for a certain period of time. Plasma was prepared. Drug concentration was analyzed by LC-MS/MS method. Pharmacokinetic parameters were calculated using Certara WinNonlin software (Certara Company, USA).

[5] = molecular target: T1, KRAS^G12D; experiment: Activity of inhibiting KRAS^G12D: binding of KRAS to GTP (TR-FRET, SOS/GTP exchange); assay type: biochemical; details: Bodipy GDP/SOS/GTP

T1 sequence (P01116-2 other isoform, or with tags, fused parts or gaps G12D): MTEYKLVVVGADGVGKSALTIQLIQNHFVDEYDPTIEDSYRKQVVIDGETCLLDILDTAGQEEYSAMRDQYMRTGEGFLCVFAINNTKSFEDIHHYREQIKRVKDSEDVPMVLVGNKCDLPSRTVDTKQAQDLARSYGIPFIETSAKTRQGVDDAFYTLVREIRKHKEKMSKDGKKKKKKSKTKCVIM

For `C#Cc1c(F)ccc2cc(N)cc(-c3c(Cl)cc4c(N5CC6C=CC(C5)N6)nc(OC[C@@]56CCCN5C[C@H](F)C6)nc4c3F)c12` [Compound 001B], the IC50 [1] was 18.9 nM.
`C#Cc1c(F)ccc2cc(N)cc(-c3c(F)cc4c(N5CC6C=CC(C5)N6)nc(OC[C@@]56CCCN5C[C@H](F)C6)nc4c3F)c12` [Compound 002A] showed an IC50 [1] of 23.7 nM, an IC50 [2] of 17.7 nM and an IC50 [3] of 0.15 nM. For the same molecule, the Vd ([4]; intravenous administration, dose 1.74-1.94 mg/kg, read-out: apparent volume of distribution Vdss) was 56.3 L/kg, the AUC(0-t) ([4]; intravenous administration, dose 1.74-1.94 mg/kg) was 0.267 µM·h and the clearance ([4]; intravenous administration, dose 1.74-1.94 mg/kg, read-out: clearance rate CL) was 189 mL/min/kg. For the same molecule, the half-life ([4]; intravenous administration, dose 1.74-1.94 mg/kg, read-out: half-life T1/2 (converted)) was 7.12 h, the AUC(0-t) ([4]; oral administration, dose 28.2-51.0 mg/kg) was 0.637 µM·h and the bioavailability ([4]; oral administration, dose 28.2-51.0 mg/kg, read-out: bioavailability F) was 16.1%. It also gave a Cmax ([4]; oral administration, dose 28.2-51.0 mg/kg, read-out: peak concentration Cmax) of 345 nM and a Tmax ([4]; oral administration, dose 28.2-51.0 mg/kg, read-out: peak time Tmax) of 1.13 h.
`C#Cc1c(F)ccc2cc(N)cc(-c3ccc4c(N5CC6C=CC(C5)N6)nc(OC[C@@]56CCCN5C[C@H](F)C6)nc4c3F)c12` [Compound 003] showed an IC50 [1] of 20.4 nM.
Work on `C#Cc1c(F)ccc2cc(O)cc(-c3ccc4c(N5CC6C=CC(C5)N6)nc(OC[C@@]56CCCN5C[C@H](F)C6)nc4c3F)c12` [Compound 005] yielded an IC50 [1] of 12.3 nM.
Molecule `C#Cc1c(F)ccc2cc(N)cc(-c3cc(OC)c4c(N5CC6C=CC(C5)N6)nc(OC[C@@]56CCCN5C[C@H](F)C6)nc4c3F)c12` [Compound 006] has an IC50 [1] of 37.4 nM.
`C#Cc1c(F)ccc2cc(N)cc(-c3c(F)cc4c(N5CC6C=CC(C5)N6)nc(OC[C@]56CCCN5CC(=C)C6)nc4c3F)c12` [Compound 016B] gave an IC50 [2] of 14.2 nM.
With `Oc1cc(-c2c(Cl)cc3c(N4C5CCC4CNC5)nc(OC[C@@]45CCCN4C[C@H](F)C5)nc3c2F)c2ccccc2c1` [Compound 029 hydrochloride] the IC50 [5] was 38.6 nM.

— US20240383924A1, “BENZOPYRIMIDINE COMPOUNDS AND USE THEREOF” (priority 2022, published 2024)
